Data taken from patent US10576060B2, “FK506 derivative maintaining nerve regeneration activity without immunosuppressive activity, and use thereof” (INTRON BIOTECHNOLOGY CO., LTD, priority 2014, dated 2020).
Entries after “also recorded” stand apart in the source; their conditions may differ.

Tests used:
[1] = tested on: rat pheochromocytoma cells (PC12); assay: Nerve regeneration activity: neurite outgrowth in NGF-treated PC12 cells; assay type: cell-based; settings: 10 nM compound with NGF 10 ng/mL, 96 hours
Description: A relative nerve regeneration activity of the compound, compared to authentic FK506, was determined using rat pheochromocytoma cells (PC12) by the method described in Mo, S. J. et al. (J. Am. Chem. Soc. 2011, 133, 976-985). The PC12 cells were treated with nerve growth factor (NGF; KOMA Biotech; 10 ng/mL) which induces neurite outgrowth for 96 hours. 10 nM of FK506 or 9-deoxo-prolyl-FK506 was treated together or excluded. The neurite lengths were measured on photographic prints by the method Revill, W. P. et al. described (J. Pharmacol. Exp. Ther. 2002, 302, 1278-1285).
A relative neuroregenerative property of 31-O-demethyl-FK506 compared to authentic FK506 was determined using the same method as Example 3. (2).
A relative nerve regeneration property of 9-deoxo-31-O-demethyl-FK506 compared to authentic FK506 was determined using the same method as Example 3. (2).

[2] = tested on: CD3/CD28-activated human T-cells; assay: In vitro T-cell activity: interleukin-2 secretion by CD3/CD28-activated human T-cells; assay type: cell-based; settings: compound 0.1 nM, 16 to 20 hours
Description: A relative immunosuppressive property of the compound compared to authentic FK506 was determined using T-lymphocytes as described in Mo, S. J. et al. (J. Am. Chem. Soc. 2011, 133, 976-985). Simply, interleukin-2 secretions were quantified after treating the compound (0.1 nM) with CD3/CD28-activated human T-cells with the compounds for 16 to 20 hours.
A relative immunosuppressive property of 31-O-demethyl-FK506 compared to authentic FK506 was determined using the same method as Example 3. (1).

SMILES	neurite outgrowth promotion (neurite length) [1]	interleukin-2 secretion (immunosuppressive activity) [2]
C=CC[C@@H]1/C=C(\C)C[C@H](C)C[C@H](OC)[C@H]2O[C@@](O)(CC(=O)N3CCCC[C@H]3C(=O)O[C@H](/C(C)=C/[C@@H]3CC[C@@H](O)[C@H](O)C3)[C@H](C)[C@@H](O)CC1=O)[C@H](C)C[C@@H]2OC [9-deoxo-31-O-demethyl-FK506]	excellent effect on neurite outgrowth promotion; also recorded: promotes neurite outgrowth in PC12 cells	significantly increased to reach that of the normal group; also recorded: increased significantly to reach a normal level
C=CC[C@@H]1/C=C(\C)C[C@H](C)C[C@H](OC)[C@H]2O[C@@](O)(CC(=O)N3CCC[C@H]3C(=O)O[C@H](/C(C)=C/[C@@H]3CC[C@@H](O)[C@H](OC)C3)[C@H](C)[C@@H](O)CC1=O)[C@H](C)C[C@@H]2OC [9-deoxo-prolyl-FK506]	excellent effect on neurite outgrowth promotion; also recorded: promotes neurite outgrowth in PC12 cells	significantly increased to reach that of the normal group; also recorded: increased significantly to reach a normal level
C=CC[C@@H]1/C=C(\C)C[C@H](C)C[C@H](OC)[C@H]2O[C@@](O)(C(=O)C(=O)N3CCCC[C@H]3C(=O)O[C@H](/C(C)=C/[C@@H]3CC[C@@H](O)[C@H](O)C3)[C@H](C)[C@@H](O)CC1=O)[C@H](C)C[C@@H]2OC [31-O-demethyl-FK506]	excellent effect on neurite outgrowth promotion; also recorded: promotes neurite outgrowth in PC12 cells	significantly increased to reach that of the normal group; also recorded: increased significantly to reach a normal level
C=CC[C@@H]1/C=C(\C)C[C@H](C)C[C@H](OC)[C@H]2O[C@@](O)(C(=O)C(=O)N3CCCC[C@H]3C(=O)O[C@H](/C(C)=C/[C@@H]3CC[C@@H](O)[C@H](OC)C3)[C@H](C)[C@@H](O)CC1=O)[C@H](C)C[C@@H]2OC [FK506]	–	decreased as much as the number of CD3/CD28-inactivated human T-cells
